Test results published in patent US20260083704A1, “LXR MODULATORS WITH BICYCLIC CORE MOIETY FOR TREATING DYSLIPIDEMIAS” (OrsoBio, Inc., priority 2022, published 2026).

Legend:
[1] = target: T1, LXRβ (Homo sapiens, UniProt P55055); test: LXR Gal4 reporter transient transfection assay (mammalian two-hybrid, HEK293), LXRβ; assay type: cell-based; set-up: LXRβ (amino acids 156-461); expressed in transfected cells; host or cells: HEK293; settings: full length (FL) LXRβ, HEK293; read-out: FL-M2H Gal4β
T1 sequence (P55055 1-460): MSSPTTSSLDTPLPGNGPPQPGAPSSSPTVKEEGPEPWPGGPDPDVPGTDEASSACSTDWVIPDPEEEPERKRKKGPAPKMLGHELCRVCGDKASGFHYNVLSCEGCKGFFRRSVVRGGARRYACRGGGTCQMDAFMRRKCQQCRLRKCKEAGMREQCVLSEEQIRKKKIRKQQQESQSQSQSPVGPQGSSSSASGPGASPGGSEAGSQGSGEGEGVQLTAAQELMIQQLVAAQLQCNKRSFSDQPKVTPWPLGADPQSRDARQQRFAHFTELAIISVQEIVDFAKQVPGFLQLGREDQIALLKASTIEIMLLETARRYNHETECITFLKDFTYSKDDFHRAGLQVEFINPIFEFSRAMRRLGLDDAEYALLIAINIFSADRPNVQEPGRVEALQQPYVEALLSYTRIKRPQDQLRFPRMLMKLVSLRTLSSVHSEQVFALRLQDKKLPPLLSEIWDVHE
Protocol: LXRα and LXRβ activity status was determined via detection of interaction with coactivator and corepressor proteins in mammalian two-hybrid experiments (M2H). For this, via transient transfection the full length (FL) proteins of LXRα (amino acids 1-447; NP005684; SEQ ID NO:1) or LXRβ-(amino acids 1-461; NP009052; SEQ ID NO:2) or the ligand-binding domains (LBD) of LXRα (amino acids 155-447 SEQ ID NO:3) or LXRβ (amino acids 156-461; SEQ ID NO:4) were expressed from pCMV-AD (Stratagene) as fusions to the transcriptional activation domain of NFkB. As cofactors, domains of either the steroid receptor coactivator 1 (SRC1; amino acids 552-887; SEQ ID NO:5) or of the corepressor NCoR (amino acids 1906-2312; NP006302; SEQ ID NO:6) were expressed as fusions to the DNA binding domain of the yeast transcription factor GAL4 (from pCMV-BD; Stratagene). Interaction was monitored via activation of a coexpressed Firefly Luciferase Reporter gene under control of a promoter containing repetitive GAL4 response elements (vector pFRLuc; Stratagene). Transfection efficiency was controlled via cotransfection of constitutively active pRL-CMV Renilla reniformis luciferase reporter (Promega). HEK293 cells were grown in minimum essential medium (MEM) with 2 mM L-glutamine and Earle's balanced salt solution supplemented with 8.3% fetal bovine serum, 0.1 mM non-essential amino acids, 1 mM sodium pyruvate, at 37° C. in 5% CO2. 3.5×10^4 cells/well were plated in 96-well cell culture plates in growth medium supplemented with 8.3% fetal bovine serum for 16-20 h to ˜90% confluency. For transfection, medium was taken off and LXR and cofactor expressing plasmids as well as the reporter plasmids are added in 30 μL OPTIMEM/well including polyethylene-imine (PEI) as vehicle. Typical amounts of plasmids transfected/well: pCMV-AD-LXR (5 ng), pCMV-BD-cofactor (5 ng), pFR-Luc (100 ng), pRL-CMV (0.5 ng). Compound stocks were prepared in DMSO, prediluted in MEM to a total volume of 120 μL, and added 4 h after addition of the transfection mixture (final vehicle concentration not exceeding 0.2%). Cells were incubated for additional 16 h, lysed for 10 min in 1×Passive Lysis Buffer (Promega) and Firefly and Renilla luciferase activities were measured sequentially in the same cell extract using buffers containing D-luciferine and coelenterazine, respectively. Measurements of luminescence were done in a BMG-luminometer.
The potencies of Compound 21/3 and its analog, Compound pre-6/3, against LXRα and LXRβ were evaluated in biochemical binding assays, cellular mammalian two-hybrid (M2H) interaction assays evaluating nuclear receptor co-repressor (NCOR) recruitment, and cellular reporter assays evaluating transcriptional activity (Table 5).

[2] = target: T2, GST-LXRβ ligand-binding domain (Homo sapiens, UniProt P55055); test: TR-FRETβ activity assay (NCoA3 coactivator peptide recruitment); assay type: biochemical; settings: 1 μM 24(S)-25-epoxycholesterol prestimulation
T2 construct: amino acids 156-461; NP009052; made in house; host or cells: E. coli
T2 sequence (P55055 156-460 limits assumed): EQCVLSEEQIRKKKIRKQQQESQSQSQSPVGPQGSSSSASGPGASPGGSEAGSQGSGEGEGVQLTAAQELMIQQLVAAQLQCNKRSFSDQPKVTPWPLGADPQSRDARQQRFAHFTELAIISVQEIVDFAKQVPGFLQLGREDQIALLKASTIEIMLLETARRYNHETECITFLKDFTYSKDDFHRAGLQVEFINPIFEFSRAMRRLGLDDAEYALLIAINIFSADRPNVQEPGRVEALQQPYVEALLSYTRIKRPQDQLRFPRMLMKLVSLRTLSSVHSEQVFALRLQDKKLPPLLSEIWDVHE
Protocol: Recombinant GST-LXRβ ligand-binding domain (LBD; amino acids 156-461; NP009052; SEQ ID NO:4) was expressed in E. coli and purified via gluthatione-sepharose affinity chromatography. N-terminally biotinylated NCoA3 coactivator peptide (SEQ ID NO:7) was chemically synthesized (Eurogentec). Assays were done in 384 well format (final assay volume of 25 μL/well) in a Tris/HCl buffer (pH 6.8) containing KCl, bovine serum albumin, Triton-X-100 and 1 μM 24(S)-25-epoxycholesterol as LXR-prestimulating agonist. Assay buffer was provided and test articles (potential LXR inverse agonists) were titrated to yield final assay concentrations of 50 μM, 16.7 μM, 5.6 μM, 1.9 μM, 0.6 μM, 0.2 μM, 0.07 μM, 0.02 μM, 0.007 μM, 0.002 μM with one vehicle control. Finally, a detection mix was added containing anti GST-Tb cryptate (CisBio; 610SAXLB) and Streptavidin-XL665 (CisBio; 610SAXLB) as fluorescent donor and acceptor, respectively, as well as the coactivator peptide and LXRβ-LBD protein (SEQ ID NO:4). The reaction was mixed thoroughly, equilibrated for 1 h at 4° C. and vicinity of LXRβ and coactivator peptide was detected by measurement of fluorescence in a VictorX4 multiplate reader (PerkinElmer Life Science) using 340 nm as excitation and 615 and 665 nm as emission wavelengths. Assays were performed in triplicates.
240 mM KCl, 1 μg/μL BSA, 0.002% Triton-X-100, […] anti GST-Tb cryptate, 2.5 ng/μL Streptavidin-XL665, coactivator peptide (400 nM), LXRβ protein (530 μg/mL, i.e. 76 nM).

Row | Structure (SMILES) | EC50 [1] [nM] | EC50 [2] [nM]
1 | N#Cc1cccc(C#N)c1-c1c(-c2cccc(N3CC(C(=O)O)C3)c2)n(S(=O)(=O)c2ccc(C(F)F)cc2)c2ccc(F)cc12 [3/67] | 100 to 1000 | 100 to 1000
2 | N#Cc1cccc(C#N)c1-c1c(-c2cccc(C3CC3C(=O)O)c2)n(S(=O)(=O)c2ccc(C(F)F)cc2)c2ccc(F)cc12 (stereo not drawn) [3/68] | < 100 | 100 to 1000
3 | O=C(O)c1ccc(-c2cccc(-c3c(-c4cccc5oncc45)c4cc(F)ccc4n3S(=O)(=O)c3ccc(C(F)F)cc3)c2)c(Cl)c1 [3/69] | 100 to 1000 | 100 to 1000
4 | N#Cc1cccc(C#N)c1-c1c(-c2cccc(-c3ccc(C(=O)O)cc3Cl)c2)n(S(=O)(=O)c2ccc(C(F)F)cc2)c2cnc(O)cc12 [3/70] | 100 to 1000 | 100 to 1000
5 | N#Cc1cccc(C#N)c1-c1c(-c2cccc(-c3c(F)cc(OCC(=O)O)cc3F)c2)n(S(=O)(=O)c2ccc(C(F)F)cc2)c2ccc(F)cc12 [3/71] | < 100 | < 100
6 | CC(O)(C(=O)O)c1cc(F)c(-c2cccc(-c3c(-c4c(C#N)cccc4C#N)c4cc(F)ccc4n3S(=O)(=O)c3ccc(C(F)F)cc3)c2)c(F)c1 (stereo not drawn) [3/72] | < 100 | < 100
7 | Cc1ccc(S(=O)(=O)n2c(-c3cccc(C4CC4C(=O)O)c3)c(-c3ccsc3C#N)c3ccncc32)cc1 (stereo not drawn) [4/1] | < 100 | 1000 to 10000
8 | Cc1ccc(S(=O)(=O)n2c(-c3cccc(C4CC4C(=O)O)c3)c(-c3ccsc3C#N)c3cccnc32)cc1 (stereo not drawn) [4/2] | 100 to 1000 | 1000 to 10000
9 | Cc1ccc(S(=O)(=O)n2c(-c3cccc(N4CC(C(=O)O)C4)c3)c(-c3ccsc3C#N)c3sccc32)cc1 [4/3] | < 100 | 1000 to 10000
10 | Cc1ccc(S(=O)(=O)n2c(-c3cccc(-c4ccc(CO)c(S(=O)(=O)CC(=O)O)c4)c3)c(-c3ccsc3C#N)c3ccccc32)cc1 [5/1] | 100 to 1000 | 100 to 1000
11 | Cc1ccc(S(=O)(=O)n2c(-c3cccc(C45CC(C(=O)O)(C4)C5)c3)c(-c3ccsc3C#N)c3ccccc32)cc1 [5/2] | 100 to 1000 | 100 to 1000
12 | Cc1ccc(S(=O)(=O)n2c(-c3cccc(C#CC(C)(C)C(=O)O)c3)c(-c3ccsc3C#N)c3cc(F)ccc32)cc1 [5/4] | < 100 | 1000 to 10000
13 | Cc1ccc(S(=O)(=O)n2c(-c3cccc(-n4ccc(C(=O)O)cc4=O)c3)c(-c3ccsc3C#N)c3cc(F)ccc32)cc1 [5/5] | 100 to 1000 | 100 to 1000
14 | Cc1ccc(S(=O)(=O)n2c(-c3ccnc(-c4ccc(C(=O)O)cc4)c3)c(-c3ccsc3C#N)c3cc(F)ccc32)cc1 [5/6] | < 100 | 100 to 1000
15 | N#Cc1sccc1-c1c(-c2cccc(N3CC(C(=O)O)C3)c2)n(S(=O)(=O)c2ccc(Cl)cc2)c2ccc(F)cc12 [5/7] | < 100 | 100 to 1000
16 | COc1ccc(S(=O)(=O)n2c(-c3cccc(N4CC(C(=O)O)C4)c3)c(-c3ccsc3C#N)c3cc(F)ccc32)cn1 [5/8] | 100 to 1000 | 100 to 1000
17 | Cc1ccc(S(=O)(=O)n2c(-c3cccc(N4CC[C@@H](C(=O)O)C[C@H]4C)c3)c(-c3ccsc3C#N)c3cc(F)ccc32)cc1 [5/9] | < 100 | 100 to 1000
18 | O=C(O)c1ccc(-c2cccc(-c3c(-c4ncccc4N4CC(O)C4)c4cc(F)ccc4n3S(=O)(=O)c3ccc(C(F)F)cc3)c2)c(Cl)c1 [5/10] | 100 to 1000 | 1000 to 10000
19 | N#Cc1sccc1-c1c(-c2cccc(C3CC3C(=O)NO)c2)n(S(=O)(=O)c2ccc(Cl)cc2)c2ccccc12 (stereo not drawn) [6/1] | < 100 | 100 to 1000
20 | CC(C)(C)OC(=O)CNC(=O)c1ccc(-c2cccc(-c3c(-c4c(C#N)cccc4C#N)c4cc(F)ccc4n3S(=O)(=O)c3ccc(C(F)F)cc3)c2)c(Cl)c1 [6/3] | < 100 | < 100
21 | Cc1ccc(S(=O)(=O)n2c(-c3cccc(-c4ccc(CN(C)C)cc4)c3)c(-c3ccsc3C#N)c3cc(F)ccc32)cc1 [8/1] | < 100 | 100 to 1000
22 | O=C(O)c1ccc(-c2cccc(-c3c(-c4ccccc4C4COC4)c4cnccc4n3S(=O)(=O)c3ccc(C(F)F)cc3)c2)c(Cl)c1 [8/3] | < 100 | 100 to 1000
23 | N#Cc1ccccc1-c1c(-c2cccc(-c3ccc(C(=O)O)cc3Cl)c2)n(S(=O)(=O)c2ccc(C(F)F)cc2)c2cccnc12 [8/7] | < 100 | 100 to 1000
24 | N#Cc1sccc1-c1c(-c2cccc(-c3ccc(C(=O)NCCS(=O)(=O)O)cc3Cl)c2)n(S(=O)(=O)c2ccc(C(F)F)cc2)c2ccc(F)cc12 [10/3] | < 100 | < 100
25 | O=C(NCCS(=O)(=O)O)C1CC1c1cccc(-c2c(-c3c(Cl)cccc3Cl)c3cc(F)ccc3n2S(=O)(=O)c2ccc(C(F)F)cc2)c1 (stereo not drawn) [10/4] | < 100 | < 100
26 | Cc1ccc(S(=O)(=O)n2c(-c3cccc(-c4ccc(C(=O)O)cc4Cl)c3)c(-c3cccc(F)c3C#N)c3cc(F)ccc32)cc1 [11/1] | < 100 | < 100
27 | Cc1ccc(S(=O)(=O)n2c(-c3cccc(-c4ccc(C(=O)O)cc4Cl)c3)c(-c3cccc(C)c3C#N)c3cc(F)ccc32)cc1 [11/2] | < 100 | < 100
28 | COc1cccc(-c2c(-c3cccc(-c4ccc(C(=O)O)cc4Cl)c3)n(S(=O)(=O)c3ccc(C)cc3)c3ccc(F)cc23)c1C#N [11/3] | < 100 | < 100
29 | Cc1ccc(S(=O)(=O)n2c(-c3cccc(-c4ccc(C(=O)O)cc4Cl)c3)c(-c3ccc(C)cc3C#N)c3cc(F)ccc32)cc1 [11/4] | < 100 | 100 to 1000
30 | Cc1ccc(S(=O)(=O)n2c(-c3cccc(-c4ccc(C(=O)O)cc4Cl)c3)c(-c3cc(C)ccc3C#N)c3cc(F)ccc32)cc1 [11/5] | < 100 | < 100
